# Results as given in patent publication US20100204129A1, “USE OF A PEPTIDE AS A THERAPEUTIC AGENT” (priority 2008, published 2010).
# Non-standard residues stand in square brackets, D forms with d. Residues, ends and D or L forms follow the SMILES beside them.
# How the values were obtained:
# [1] = system: Human Peripheral Blood Mononuclear Cells (PBMC); experiment: T cell proliferation assay (PHA, 3H-thymidine); assay type: cell-based; conditions: peptide 10 micrograms per ml, 3H-thymidine incorporation
# Experimental: Human Peripheral Blood Mononuclear Cells (PBMC) were obtained from normal human donors. The T cell proliferation was induced by stimulation of the cells with the T cell mitogen phytohemagglutinin (PHA), either in the absence (positive proliferation control), or in the presence of test peptide—10 micrograms per ml—to examine their effects on the T cell proliferating response. 10^5/well PBMC were plated in 96-well microtiter plates and assayed in duplicate with the peptide. Cell cultures were incubated at 37° C. for 3 days in a 5% CO2 incubator and were thereafter pulsed with 1 microCi/well ^3H-thymidine for additional 12 hours of culture. At the end of incubation time, the plates were harvested and the cells counted by liquid scintillation for the incorporation of ^3H-thymidine as a measure of T cell proliferation.
# spleen cells = experiment: Th1/Th2 cytokine profiling assay (Ovalbumin restimulated spleen cells, CBA kit); assay type: cell-based, Balb/c mice; conditions: peptide 10 micrograms per ml; Ovalbumin 10 micrograms/ml restimulation; 72 hours
# Excerpt: The Balb/c mice (originated in 1923, it is a popular strain and is used in many different research disciplines. Also classified as an inbred from the production of 20 or more successive brother-sister matings, the Balb/c mouse is albino and small in size) were immunized on Days 1, 15, and 29 with Ovalbumin (Ovalbumin is the main protein found in egg white, commonly used to stimulate an immunological reaction in test animals) in PBS (5 micrograms/injection). On day 50, spleens of the mice were harvested (3 weeks after last boost with Ovalbumin). Cells were cultured (2×10^5/well in triplicate) and incubated with culture medium or test peptide—10 micrograms per ml—for 30 min. Thereafter, additional Ovalbumin was added to the cells at 10 micrograms/ml for in vitro restimulation of the cells. 72 hours later, cell supernatants were harvested and assayed using the Becton Dickinson Mouse Th1/Th2 Cytokine CBA Kit. This kit can be used to measure Interleukin-2 (IL-2), Interleukin-4 (IL-4), Interleukin-5 (IL-5), Interferon-γ (IFN-γ), and Tumor Necrosis Factor-α (TNF-α) protein levels in a single sample. The kit performance has been optimized for analysis of physiologically relevant concentrations ([…] levels) of specific cytokine proteins in tissue culture supernatants and serum samples.
# TNF alpha = TNF alpha production assay (LPS-stimulated macrophages, ELISA); assay type: cell-based, human; conditions: macrophages from PBMC, peptide 10 micrograms per ml, lipopolysaccharide 200 ng/ml, overnight
# Experimental: Human Peripheral Blood Mononuclear Cells (PBMC) were obtained from normal human donors. The macrophages were prepared by adherence of PBMC to the plastic wells of the plates. After 8 days in culture in the presence of recombinant human macrophage-colony stimulating factor at 2 ng/ml, differentiated macrophages were preincubated with test peptide—10 micrograms per ml—for 30 min, followed by in-well stimulation by the addition of lipopolysaccharide at a final concentration of 200 ng/ml. Not stimulated macrophages served as negative background control.
# After overnight incubation, supernatants from the control and LPS-stimulated cultures were harvested and assayed for TNF alpha production employing a TNF alpha specific ELISA.
# [2] = system: Primary Human endothelial cells (HUVEC); experiment: Endothelial cell migration assay; assay type: cell-based; conditions: peptide 10 micrograms per ml, 22 hours
# Experimental: Endothelial cell migration is a prerequisite for the process of neo-vascularization or angiogenesis which is crucial for on-site recruitment of blood vessel formation. Primary Human endothelial cells (HUVEC) were seeded in insert chambers with 3 micrometer pore size of multi-transwell plate for 6 hours at 37° C. in Endothelial Cell Basal Medium (EBM) supplemented with 0.1% bovine serum albumin. Thereafter, designated concentration of test peptide—10 micrograms per ml—was added in duplicate wells. The endothelia were allowed to migrate for 22 hours at 37° C., then, migrated cells were fixed and stained with Hoechst 33342 dye. Images of 3 fields per insert were taken and the number of migrated cells per field were quantified using the ImageProPlus software. Data were analyzed for the average number of the migrated cells and standard deviation of six data points for each treatment condition. Active test peptide against HUVEC migration was determined based on 50% inhibition of migrated cells as compared with the control. Statistic p values were computed using the Student's t-test.
# [3] = Cytotoxicity in HIV-1 assay (MTS cell viability); conditions: human, CEM-SS cells (uninfected, cells plus peptide only)
# [4] = Cytotoxicity in HCMV assay (CellTiter 96 cell viability); conditions: human, MRC-5 cells (embryonal lung fibroblasts)
# Experimental: For cytotoxicity testing, MRC-5 cells were seeded at 2,500 cells/well in 96 well plates using growth medium. […] The following day, peptide was added and tested in duplicates. After a 6 days incubation period, cell viability was measured using CellTiter 96 Solution (Promega). Plates were incubated for additional 4 hours at 37° C. Adhesive plate sealers were used in place of lids, the sealed plates were inverted several times to mix the soluble formazan product and the plate was read spectrophotometrically at 490/560 nm with a Molecular Devices Vmax plate reader.
# [5] = system: hepatitis B virus (HBV) ayw strain; experiment: HBV assay, secreted HBV DNA by TaqMan PCR in HepG2-2.2.15; conditions: peptide 10 micrograms per ml; six days; HBV DNA in supernatant
smiles,measurement,setting,value
"CC(C)C[C@H](NC(=O)[C@H](CC(C)C)NC(=O)[C@@H](Cc1c[nH]c2ccccc12)NC(=O)[C@H](Cc1ccccc1)NC(=O)[C@@H](Cc1c[nH]c2ccccc12)NC(=O)[C@H](CCC(N)=O)NC(=O)[C@H](CCC(N)=O)NC(=O)[C@@H]1CCCN1C(=O)[C@H](CCCCN)NC(=O)[C@@H]1CCCN1C(=O)[C@@H](CCCNC(=N)N)NC(=O)[C@@H]1CCCN1C(=O)CNC(=O)[C@H](CC(C)C)NC(=O)[C@H](CC(C)C)NC(=O)[C@H](Cc1ccc(O)cc1)NC(=O)CNC(=O)[C@H](C)NC(=O)[C@H](CO)NC(=O)[C@H](CC(N)=O)NC(=O)[C@H](CC(C)C)NC(=O)[C@@H](NC(=O)[C@H](Cc1c[nH]c2ccccc12)NC(=O)CN)[C@@H](C)O)C(N)=O [Spantide-I, Gly-Trp-Thr-Leu-Asn-Ser-Ala-Gly-Tyr-Leu-Leu-Gly-Pro-D-Arg-Pro-Lys-Pro-Gln-Gln-D-Trp-Phe-D-Trp-Leu-Leu-NH2] (H-GWTLNSAGYLLGP[dR]PKPQQ[dW]F[dW]LL-NH2)",% of PHA induced control,[1],96.3%
same,IFNγ spleen cells; TH1 response (% of control),spleen cells,43.1 % of control
same,IL-2 spleen cells (% of control),spleen cells,25.9 % of control
same,IL-4 spleen cells; TH2 response (% of control),spleen cells,40.5 % of control
same,IL-5 spleen cells; TH2 response (% of control),spleen cells,64.5 % of control
same,TNF-a spleen cells; TH1 response (% of control),spleen cells,61.9 % of control
same,% of LPS induction,TNF alpha,101.4%
same,% inhibition of migration,[2],−25%
same,viability at 10 micrograms per ml,[3],100%
same,viability at 144 h,[4],100%
same,% inhibition of HBV replication in HEP G2 cells,[5],14.1%
